Assay [1] has as its target T1, AldOTf (Thermopolyspora flexuosa, UniProt A0A543IX60).
T1 construct: gene FHX40_1862
As to the kind of experiment: oxygen consumption (oxygen electrode), steady-state kinetics. Conditions: read-out: KM (mM) / Glycerol^b; 50 mM KPi pH 7.5, 25 °C, O2 as co-substrate. In kind it is biochemical. An excerpt:
oxygen consumption (oxygen electrode), steady-state kinetics on AldOTf

Assay [2] addresses T1, AldOTf. As to the kind of experiment: HRP-coupled AAP/DCHBS H2O2 assay, […] nm, steady-state kinetics. The assay is classed as biochemical. Particulars: read-out: KM (mM) / Xylitol^a; 50 mM KPi pH 7.5, 25 °C, O2 as co-substrate.

Consider two compounds from article PMC10771423 (Applied Microbiology and Biotechnology, 2024).

T1 sequence (A0A543IX60 entry or part of it): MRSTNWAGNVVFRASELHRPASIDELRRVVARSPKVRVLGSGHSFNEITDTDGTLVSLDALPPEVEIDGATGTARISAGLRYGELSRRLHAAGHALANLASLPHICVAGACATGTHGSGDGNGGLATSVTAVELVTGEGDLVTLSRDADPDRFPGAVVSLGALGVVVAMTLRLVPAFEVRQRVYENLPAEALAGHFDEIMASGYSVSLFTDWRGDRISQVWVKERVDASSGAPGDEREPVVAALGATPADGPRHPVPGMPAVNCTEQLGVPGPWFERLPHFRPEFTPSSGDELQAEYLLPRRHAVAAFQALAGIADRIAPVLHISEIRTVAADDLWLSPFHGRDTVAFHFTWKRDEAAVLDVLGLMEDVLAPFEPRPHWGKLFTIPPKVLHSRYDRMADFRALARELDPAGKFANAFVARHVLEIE

`OCC(O)CO` [glycerol]: the Km at AldOTf [1] is 41 mM. Regarding `OC[C@@H](O)[C@H](O)[C@@H](O)CO` [xylitol], the Km at AldOTf [2] was determined as 0.04 mM.
